# Patent US6545182B2, “Methods and compositions for modulating alpha adrenergic receptor activity” (Allergan Sales, Inc., priority 2000, dated 2003)
# Columns and labels:
# [1] = tested on: patient two; assay: treatment of visceral pain in a colon cancer patient; assay type: in vivo, human; settings: intravenous infusion twice daily, after two days
# Excerpt: patient two suffering from colon cancer and undergoing chemotherapy experiences severe visceral pain associated with this primary condition. Treatment of this pain with opiates have been ineffective to provide substantial relief.
# The patient is given a therapeutic amount of FORMULA 3 by intravenous infusion in a pharmaceutically acceptable vehicle. The treatment is given twice daily.
# Under the same facts as Example 7, except the patient is given FORMULA 2 instead of FORMULA 3.
# [2] = tested on: Sprague-Dawley rats; assay: rat locomotor model to assess sedation; assay type: in vivo; settings: 30 minutes after injection, vs vehicle controls
# Experimental: (§1) The physiological activity of these compounds was tested using four models: a rat locomotor model to assess sedation, an assay of cardiovascular activity in monkeys, a rat thermal paw withdrawal assay (Dirig et al., J. Neurosci. Methods 76:183-191 (1997) to test the alleviation of acute pain, and the rat spinal nerve ligation allodynia model (Kim and Chung, Pain 50:355-363 (1992) to assess the alleviation of neuropathic pain and central sensitization typical of chronic pain. As is known to those of skill in the art, these tests are established pharmacological methods for determining sedation, cardiovascular effects, acute pain and chronic pain, respectively, of pharmaceutical agents.
# To test sedation, six male Sprague-Dawley rats were given up to 3 mg/kg of each compound in a saline or DMSO vehicle by intraperitoneal injection (i.p.). Sedation was graded 30 minutes following administration of the drug by monitoring locomotor skills as follows.
# The Sprague-Dawley rats are weighed and 1 ml/kg body weight of an appropriate concentration (i.e. 3 mg/ml for a final dose of 3 mg/kg) drug solution is injected intraperitoneally. FORMULA 3 is formulated in approximately 10% DMSO and FORMULA 2 and FORMULA 4 are formulated in 50% DMSO. The results are compared to 29 historical controls that were injected with 1 ml/kg saline or 50% DMSO. Rat activity is then determined 30 minutes after injection of the drug solution. Rats are placed in a dark covered chamber and a digicom analyzer (Omnitech Electronic) quantitates their exploratory behavior for a five-minute period. The machine records each time the rat interrupts an array of 32 photoelectric beams in the X and Y orientation.
# [3] = tested on: rats with ligated L5 and L6 spinal nerves; assay: rat spinal nerve ligation allodynia model (chronic pain); assay type: in vivo; settings: for reduction of the response to tactile stimuli that indicate tactile allodynia: von Frey hairs
# Experimental: as §1
# A model for chronic pain (in particular peripheral neuropathy such as causalgia) involves the surgical ligation of the L5 (and optionally the L6) spinal nerves on one side in experimental animals. Rats recovering from the surgery gain weight and display a level of general activity similar to that of normal rats. However, these rats develop abnormalities of the foot, wherein the hindpaw is moderately everted and the toes are held together. More importantly, the hindpaw on the side affected by the surgery appears to become sensitive to pain from low-threshold mechanical stimuli, such as that producing a faint sensation of touch in a human, within about 1 week following surgery. This sensitivity to normally non-painful touch is called “tactile allodynia” and lasts for at least two months. The response includes lifting the affected hindpaw to escape from the stimulus, licking the paw and holding it in the air for many seconds. None of these responses is normally seen in the control group.
# Rats are anesthetized before surgery. The surgical site is shaved and prepared either with betadine or Novacaine. Incision is made from the thoracic vertebra Xlll down toward the sacrum. Muscle tissue is separated from the spinal vertebra (left side) at the L4-S2 levels. The L6 vertebra is located and the transverse process is carefully removed with a small rongeur to expose the L4-L6 spinal nerves. The L5 and L6 spinal nerves are isolated and tightly ligated with 6-0 silk thread. The same procedure is done on the right side as a control, except no ligation of the spinal nerves is performed.
# A complete hemostasis is confirmed, then the wounds are sutured. A small amount of antibiotic ointment is applied to the incised area, and the rat is transferred to the recovery plastic cage under a regulated heat-temperature lamp. On the day of the experiment, at least seven days after the surgery, six rats per test group are administered the test drugs by intraperitoneal (i.p.) injection or oral gavage. For i.p. injection, the compounds are formulated in approximately 50% DMSO and given in a volume of 1 ml/kg body weight. FORMULA 2 was tested at doses ranging between 1 and 300 μg /kg, FORMULA 3 was tested at doses between 0.1 and 3 mg/kg and FORMULA 4 was tested at doses of 0.3 and 3 mg/kg. FORMULA 2 was also administered by oral gavage at doses of 0.1, 0.3 and 1 mg/kg body weight to 24-hour fasted rats. A volume equal to 1 ml/kg body weight of an appropriate concentration (i.e. 1 mg/ml for a 1 mg/kg dose) of FORMULA 2 formulated in approximately 50% DMSO was injected using an 18-gauge, 3-inch gavage needle that is slowly inserted through the esophagus into the stomach.
# Tactile allodynia is measured prior to and 30 minutes after drug administration using von Frey hairs that are a series of fine hairs with incremental differences in stiffness. Rats are placed in a plastic cage with a wire mesh bottom and allowed to acclimate for approximately 30 minutes. The von Frey hairs are applied perpendicularly through the mesh to the mid-plantar region of the rats' hindpaw with sufficient force to cause slight buckling and held for 6-8 seconds. The applied force has been calculated to range from 0.41 to 15.1 grams. If the paw is sharply withdrawn, it is considered a positive response. […]
# [4] = tested on: patient one; assay: treatment of allodynia resulting from shingles in a patient; assay type: in vivo, human; settings: oral dose in capsule form, two days' treatment
# Excerpt: person one in generally good physical condition suffers from serious pain to their upper body due caused by contact of their skin with their clothing. The patient is unable to wear clothing on their upper body without severe pain.
# The patient is given a therapeutically effective oral dose of FORMULA 3 in capsule form as needed for the treatment of pain.
# Same facts as in Example 5, except the patient is given a therapeutically effective oral dose of FORMULA 2 in capsule form as needed for the treatment of pain.
Compound,"visceral pain, patient report [1]",reduction in the exploratory activity of the rats (sedation) ([2]; 1 mg/kg i.p.),reduction of the response to tactile stimuli that indicate tactile allodynia ([3]; 30 minutes after drug),percent reversal of allodynia ([3]; i.p. 10 μg/kg),percent reversal of allodynia ([3]; i.p. 30 μg/kg),percent reversal of allodynia ([3]; i.p. 100 μg/kg),percent reversal of allodynia ([3]; i.p. 300 μg/kg),percent reversal of allodynia ([3]; i.p. dose of 3 μg/kg),"alleviation of allodynic pain ([3]; oral doses ranging from 0.1 to 1 mg/kg, 24-hour fasted rats)","allodynia resulting from shingles, patient report [4]",reduction in the exploratory activity of the rats (sedation) ([2]; 3 mg/kg i.p.),"analgesic activity (tactile allodynia) ([3]; i.p., doses up to 3 mg/kg, 30 minutes after drug)",percent reversal of allodynic pain ([3]; i.p. 1 mg/kg),percent reversal of allodynic pain ([3]; i.p. 3 mg/kg),percent reversal of allodynic pain ([3]; i.p. dose of 0.3 mg/kg)
"OCCNC(=S)NCc1cccc(Cl)c1F [FORMULA 2, 1-(3-chloro-2-fluorobenzyl)-3-(2-hydroxyethyl)-thiourea]",significant alleviation,none of the compounds caused a statistically significant reduction,able to reduce the response to the tactile stimuli,85%,90%,95%,92%,55%,82-86%,markedly reduced,,,,,
OCCNC(=S)NCc1ccccc1F [FORMULA 4],,,,,,,,,,,none of the compounds caused a statistically significant reduction,no analgesic activity,,,
OCCNC(=S)NCc1ccc(F)cc1 [FORMULA 3],significant alleviation,none of the compounds caused a statistically significant reduction,able to reduce the response to the tactile stimuli,,,,,,,markedly reduced,,,32%,26%,34%
